Converted amounts (≈) assume the structure as drawn. Where two headings read alike, the source gives them in different places.
Key:
NOD1 = biological target: T1, NOD1 (Homo sapiens, UniProt Q9Y239); assay: γ-tri-DAP-stimulated luciferase production in HEK 293T cells (NF-κB-linked reporter assay); format: cell-based; details: HEK 293T cells with endogenous NOD1, NF-κB-linked reporter; read-out: IC50, inhibition of γ-tri-DAP-stimulated luciferase production
T1 construct: luciferase production in HEK 293T cells, which has endogenous NOD1 levels; endogenous in cells; host or cells: HEK 293T
T1 sequence (Q9Y239 1-953): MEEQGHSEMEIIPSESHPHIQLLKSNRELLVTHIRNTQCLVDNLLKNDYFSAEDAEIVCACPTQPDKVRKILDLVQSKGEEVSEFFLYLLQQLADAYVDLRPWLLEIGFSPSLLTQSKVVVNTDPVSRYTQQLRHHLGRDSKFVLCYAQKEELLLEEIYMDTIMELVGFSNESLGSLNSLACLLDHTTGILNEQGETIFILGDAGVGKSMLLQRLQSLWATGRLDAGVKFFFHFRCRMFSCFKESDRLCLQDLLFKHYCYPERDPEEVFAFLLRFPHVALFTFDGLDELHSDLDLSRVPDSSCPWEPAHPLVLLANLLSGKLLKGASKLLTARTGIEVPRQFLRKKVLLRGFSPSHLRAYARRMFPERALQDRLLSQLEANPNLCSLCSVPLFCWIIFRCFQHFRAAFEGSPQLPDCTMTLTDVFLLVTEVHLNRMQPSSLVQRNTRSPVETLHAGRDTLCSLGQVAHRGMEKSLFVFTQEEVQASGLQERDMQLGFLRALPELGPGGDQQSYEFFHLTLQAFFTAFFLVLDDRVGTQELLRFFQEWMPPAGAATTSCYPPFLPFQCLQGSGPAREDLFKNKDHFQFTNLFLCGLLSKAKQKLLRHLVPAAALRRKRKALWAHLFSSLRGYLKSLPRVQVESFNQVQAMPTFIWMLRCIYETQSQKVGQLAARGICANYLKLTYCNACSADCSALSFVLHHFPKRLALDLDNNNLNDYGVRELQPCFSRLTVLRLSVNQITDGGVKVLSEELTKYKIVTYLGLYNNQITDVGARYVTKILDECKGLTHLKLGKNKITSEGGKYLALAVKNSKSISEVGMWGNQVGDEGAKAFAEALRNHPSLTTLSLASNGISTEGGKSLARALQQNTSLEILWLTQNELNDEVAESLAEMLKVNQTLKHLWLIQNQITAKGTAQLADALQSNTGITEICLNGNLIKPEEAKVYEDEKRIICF

NOD2 = assay: MDP-stimulated signal transduction in NOD2 reporter cell lines; format: cell-based; details: reporter cell lines with low or overexpressed NOD2
[1] = test system: non-NOD-stimulated NF-κB pathways; assay: Non-NOD-stimulated NF-κB pathway reporter assays (TNF-α, doxorubicin, PMA/ionomycin); format: cell-based; details: doxorubicin and PMA/ionomycin reporter assays
[2] = test system: NOD1 (γ-tri-DAP) dependent IL-8 secretion; assay: NOD1 (γ-tri-DAP) dependent IL-8 secretion; format: cell-based
[3] = test system: NOD2-dependent IL-8 secretion in MCF-7 cells; assay: NOD2-dependent IL-8 secretion in MCF-7 cells; format: cell-based
[4] = test system: TNF-α-dependent IL-8 secretion in MCF-7 cells; assay: TNF-α-dependent IL-8 secretion in MCF-7 cells; format: cell-based
Aqueous solubility = format: physicochemical; details: for solubility: aqueous medium
Method: (§1) The probes were evaluated using known in vitro ADME/T assays to understand their overall pharmacological properties (Table 2). […] The PAMPA (parallel artificial membrane permeability assay) assay is used as an in vitro model of passive, transcellular permeability. An artificial membrane immobilized on a filter is placed between a donor and acceptor compartment. […] It is not yet known whether it represents a species specific CPY450 inhibitor.

[5] = PAMPA (parallel artificial membrane permeability assay); format: in vitro ADME
Method: as §1

[6] = Hepatic microsome stability, human; format: in vitro ADME; details: human, compound at 1 μM, 60 min
Method: as §1

[7] = Hepatic microsome stability, mouse; format: in vitro ADME; details: compound at 1 μM, 60 min
Method: as §1

[8] = Hepatic toxicity in immortalized human hepatocytes; format: cell-based; details: Fa2N-4 immortalized human hepatocytes, read-out: Hepatic toxicity LC50
Method: as §1

## C/C=C/Cn1c(SCCCc2ccccc2)nc2c1c(=O)[nH]c(=O)n2C [Probe 17]
NOD1
  IC50: 1540 nM
NOD2
  Selectivity for NOD1-dependent over MDP-stimulated (NOD2-dependent) signal transduction: > 8 fold
[1]
  Selectivity over non-NOD-stimulated NF-κB pathways: selective
[2]
  Inhibition of NOD1 (γ-tri-DAP) dependent IL-8 secretion: selectively inhibited IL-8 secretion
[3]
  Inhibition of NOD2-dependent IL-8 secretion: neither inhibited
[4]
  Inhibition of TNF-α-dependent IL-8 secretion: neither inhibited
Aqueous solubility; across pH 5 to 7.4
  Solubility (in words): lowest solubility
Aqueous solubility; aqueous buffer, pH 5.0, read-out: Aqueous solubility pH 5.0
  solubility: 1.5 µM (≈ 0.556 µg/mL)
Aqueous solubility; pH 6.2, aqueous buffer, read-out: Aqueous solubility pH 6.2
  solubility: 1.8 µM (≈ 0.667 µg/mL)
Aqueous solubility; pH 7.4, aqueous buffer, read-out: Aqueous solubility pH 7.4
  solubility: 1.7 µM (≈ 0.63 µg/mL)
[5]; donor pH 5.0, acceptor pH 7.4, compound at 50 μM
  PAMPA Pe, donor pH 5.0: 1269 10^−6 cm/s
[5]; donor pH 6.2, acceptor pH 7.4, compound at 50 μM
  PAMPA Pe, donor pH 6.2: 1516 10^−6 cm/s
[5]; donor pH 7.4, acceptor pH 7.4, compound at 50 μM
  PAMPA Pe, donor pH 7.4: 1344 10^−6 cm/s
[6]
  Hepatic microsome stability, human (% remaining): 8.8 % remaining
[7]
  Hepatic microsome stability, mouse (% remaining): 0.86 % remaining
[8]
  CC50: > 50000 nM

Reference: paper PMC3678512, “Synthesis and physicochemical characterization of novel phenotypic probes targeting the nuclear factor-kappa B signaling pathway” (Beilstein Journal of Organic Chemistry, 2013)
